The target in assay [1] is T1, EP4 (Homo sapiens, UniProt P35408). Put plainly: cAMP assay, EP4. It is filed as cell-based. On the set-up: expressed in transfected cells; host or cells: HEK-EBNA cells. Particulars: HEK-EBNA cells expressing EP4. The protocol: A 384-well drug plate was prepared to contain 6 test compounds, PGE2 and cAMP in 16 serial dilutions in triplicate, using a Biomek station. HEK-EBNA cells expressing a target PG receptor subtype (EP2 or EP4) were suspended in a stimulation buffer (HBSS, 0.1% BSA, 0.5 mM IBMX and 5 mM HEPES, pH 7.4) in a density of 10^4 cells/5 μL. The reaction was initiated by mixing 5 μL drug dilutions with 5 μL of HEK-EBNA cells in a well, carried out for 30 min at room temperature, and followed by the addition of 5 μL anti-cAMP acceptor beads in the control buffer with Tween-20 (25 mM NaCl, 0.03% Tween-20, 5 mM HEPES, pH 7.4). After 30 min in the dark at room temperature, the mixtures were incubated with 15 μL biotinylated-cAMP/strepavidin donor beads in Lysis/Detection buffer (0.1% BSA, 0.3% Tween-20 and 5 mM HEPES, pH 7.4) for 45 min at the room temperature. Fluorescence changes were read using a Fusion-alpha HT microplate reader.
Background: Changes in cAMP serve as a functional read-out for many G protein-coupled receptors.

The target of assay [2] is T1, EP4. In words: Radioligand binding, EP4. The following applies: [3H]PGE2 competition. The arrangement: expressed in transfected cells; membrane fraction. The protocol:
(§1) Data from running binding and activity studies on the compounds of the invention were carried out as described in U.S. Pat. No. 7,427,685, the contents of which are incorporated herein by reference.
(§2) Cells Stably Expressing EP1, EP2, EP4, and FP Receptors
(§3) HEK-293 cells stably expressing the human or feline FP receptor, or EP1, EP2, or EP4 receptors were washed with TME buffer, scraped from the bottom of the flasks, and homogenized for 30 sec using a Brinkman PT 10/35 polytron. TME buffer was added to achieve a final 40 ml volume in the centrifuge tubes (the composition of TME is 100 mM TRIS base, 20 mM MgCl2, […]; ION HCl is added to achieve a pH of 7.4).
(§4) The cell homogenate was centrifuged at 19000 rpm for 20 min at 4° C. using a Beckman Ti-60 rotor. The resultant pellet was resuspended in TME buffer to give a final 1 mg/ml protein concentration, as determined by Biorad assay. Radioligand binding competition assays vs. [^3H-]17-phenyl PGF2α (5 nM) were performed in a 100 μl volume for 60 min. Binding reactions were started by adding plasma membrane fraction. The reaction was terminated by the addition of 4 ml ice-cold TRIS-HCl buffer and rapid filtration through glass fiber GF/B filters using a Brandel cell harvester. The filters were washed 3 times with ice-cold buffer and oven dried for one hour.
(§5) [^3H-] PGE2 (specific activity 180 Ci mmol) was used as the radio ligand for EP receptors. [^3H] 17-phenyl PGF2α was employed for FP receptor binding studies. Binding studies employing EP1, EP2, EP4 and FP receptors were performed in duplicate in at least three separate experiments. A 200 μl assay volume was used. Incubations were for 60 min at 25° C. and were terminated by the addition of 4 ml of ice-cold 50 mM TRIS-HCl, followed by rapid filtration through Whatman GF/B filters and three additional 4 ml washes in a cell harvester (Brandel). Competition studies were performed using a final concentration of 5 nM [^3H]-PGE2, or 5 nM [^3H] 17-phenyl PGF2α and non-specific binding determined with 10^−5M of unlabeled PGE2, or 17-phenyl PGF2α, according to receptor subtype studied.

The target in the next assay is EP2 (Homo sapiens, UniProt P43116). Put plainly: Ki competition binding, EP2. The following applies: [3H]PGE2 competition; NA = no activity. The arrangement: expressed in transfected cells. Here is the method: as §1
Competition binding experiments were performed in a medium containing Hank's balanced salt solution, Hepes 20 mM, pH 7.3, membranes (˜60 μg protein) or 2×10^5 cells from HEK 293 cells stably expressing human EP2 receptors, [^3H]PGE2 (10 nM) and various concentrations of test compounds in a total volume of 300 μl. Reaction mixtures were incubated at 23° C. for 60 min, and were filtered over Whatman GF IB filters under vacuum. Filters were washed three times with 5 ml ice-cold buffer containing 50 mM Tris/HCl (PH 7.3). Non-specific binding was estimated in the presence of excess unlabeled PGE2 (10 μM). Binding data fitted to the binding model for a single class of binding sites, using nonlinear regression analysis. IC50 values thus obtained were converted to Ki using the equation of Ki=(IC50/(1+[L]/KD) where [L] represents PGE2 concentration (10 nM) and KD the dissociation constant for [^3H]PGE2 at human EP2 receptors (40 nM).
as §2, §3, §4, §5

Sequence of EP2 (P43116 whole entry): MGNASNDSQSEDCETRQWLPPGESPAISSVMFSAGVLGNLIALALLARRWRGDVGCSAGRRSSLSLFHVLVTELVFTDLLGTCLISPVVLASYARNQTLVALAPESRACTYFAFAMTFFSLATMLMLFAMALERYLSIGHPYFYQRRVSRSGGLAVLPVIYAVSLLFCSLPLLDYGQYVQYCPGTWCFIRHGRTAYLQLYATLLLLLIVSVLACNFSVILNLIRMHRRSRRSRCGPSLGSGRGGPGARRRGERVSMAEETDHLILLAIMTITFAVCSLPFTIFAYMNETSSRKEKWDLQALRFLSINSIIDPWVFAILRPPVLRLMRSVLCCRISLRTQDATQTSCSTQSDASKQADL
T1 sequence (P35408 whole entry): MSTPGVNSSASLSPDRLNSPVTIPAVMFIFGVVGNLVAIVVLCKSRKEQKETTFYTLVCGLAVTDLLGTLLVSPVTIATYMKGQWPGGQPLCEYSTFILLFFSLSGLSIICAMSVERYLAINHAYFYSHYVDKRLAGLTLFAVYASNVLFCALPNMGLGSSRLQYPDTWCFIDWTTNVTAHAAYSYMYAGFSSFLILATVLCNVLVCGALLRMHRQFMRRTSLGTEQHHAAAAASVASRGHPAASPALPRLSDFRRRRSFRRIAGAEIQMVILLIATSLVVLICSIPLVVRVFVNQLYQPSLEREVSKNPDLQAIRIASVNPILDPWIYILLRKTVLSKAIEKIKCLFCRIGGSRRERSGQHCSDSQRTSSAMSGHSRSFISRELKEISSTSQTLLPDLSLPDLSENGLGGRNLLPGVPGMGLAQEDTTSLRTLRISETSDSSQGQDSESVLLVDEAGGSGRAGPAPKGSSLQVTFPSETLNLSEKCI

On to `COc1cc(/C=C2\[C@@H]3CC[C@@H](C3)[C@H]2C(=O)NCc2ccc(C(=O)O)cc2)cc(OC)c1` (racemic) [Example 37, 4-(((1S,2R,4R,E)-3-(3,5-Dimethoxybenzylidene)bicyclo[2.2.1]heptane-2-carboxamido)methyl)benzoic Acid], for which the EC50 at EP4 [1] was greater than 10000 nM. The Ki at EP4 [2] is 323 nM.
Taken in the same sequence, the figures for `COc1cc(CC2C3CCC(C3)C2C(=O)NCc2ccc(C(=O)O)cc2)cc(OC)c1` (racemic) [Example 39, 4-((3-(3,5-Dimethoxybenzyl)bicyclo[2.2.1]heptane-2-carboxamido)methyl)benzoic Acid] were greater than 10000 nM and 77 nM.
On to `COc1cc(CC2CCCC2C(=O)NCc2ccc(C(=O)O)cc2)cc(OC)c1` (single isomer, unassigned) [Example 1, 4-((2-(3,5-Dimethoxybenzyl)cyclopentanecarboxamido)methyl)benzoic Acid], for which, on EP4 [1], the “EP4 data cAMP EC50” value was “weak”. The figures for the Ki at EP2 and on EP4 [2] were 6190 nM and 30 nM, respectively.
As to `COc1cc(CC2CCCC2C(=O)NCc2ccc(C(=O)O)cc2)cc(OC)c1` (single isomer, unassigned) [Example 2, 4-((2-(3,5-Dimethoxybenzyl)cyclopentanecarboxamido)methyl)benzoic Acid], on EP4 [1], the EC50 came out at 9 nM. Further, the Ki is greater than 10000 nM at EP2 and 84 nM at EP4 [2].
On to `COc1cccc(CC2CCCCC2C(=O)NCc2ccc(C(=O)O)cc2)c1OC` (single isomer, unassigned) [Example 15, 4-((2-(2,3-Dimethoxybenzyl)cyclohexanecarboxamido)methyl)benzoic Acid], for which the half-maximal effective concentration (EC50) at EP4 [1] was greater than 10000 nM. For the same molecule, the Ki turned out to be 7480 nM on EP2 and 17 nM on EP4 [2].
As to `COc1cccc(CC2CCCCC2C(=O)NCc2ccc(C(=O)O)cc2)c1OC` (single isomer, unassigned) [Example 16, 4-((2-(2,3-Dimethoxybenzyl)cyclohexanecarboxamido)methyl)benzoic Acid], the EC50 at EP4 [1] is greater than 10000 nM. The Ki at EP2 came out at 4120 nM; on EP4 [2], 114 nM.
Taken in the same sequence, the figures for `COc1ccc(OC)c(CC2CCCCC2C(=O)NCc2ccc(C(=O)O)cc2)c1` (single isomer, unassigned) [Example 18, 4-((2-(2,5-Dimethoxybenzyl)cyclohexanecarboxamido)methyl)benzoic Acid] were greater than 10000 nM, 462 nM and 16 nM.
Taken in the same sequence, the figures for `COc1ccc(OC)c(CC2CCCCC2C(=O)NCc2ccc(C(=O)O)cc2)c1` (single isomer, unassigned) [Example 19, 4-((2-(2,5-Dimethoxybenzyl)cyclohexanecarboxamido)methyl)benzoic Acid] were 0.2 nM, 393 nM and 2 nM.
On to `COc1ccc(CC2CCCCC2C(=O)NCc2ccc(C(=O)O)cc2)cc1OC` (single isomer, unassigned) [Example 22, 4-((2-(3,4-Dimethoxybenzyl)cyclohexanecarboxamido)methyl)benzoic Acid], for which the EC50 at EP4 [1] was greater than 10000 nM. Further, the affinity at EP4 [2], expressed as Ki, was 4 nM.
The molecule `COc1ccc(CC2CCCCC2C(=O)NCc2ccc(C(=O)O)cc2)cc1OC` (single isomer, unassigned) [Example 23, 4-((2-(3,4-Dimethoxybenzyl)cyclohexanecarboxamido)methyl)benzoic Acid] yielded an EC50 at EP4 [1] greater than 10000 nM. The molecule further gave a Ki at EP4 [2] of 8 nM.
`O=C(O)c1ccc(CNC(=O)C2CCCCC2Cc2ccccc2)cc1` (single isomer, unassigned) [Example 25, 4-((2-Benzylcyclohexanecarboxamido)methyl)benzoic Acid]: the EC50 at EP4 [1] is greater than 10000 nM. Further, the results for the Ki at EP2 and at EP4 [2] were 4950 nM and 58 nM, respectively.
For `O=C(O)c1ccc(CNC(=O)C2CCCCC2Cc2ccccc2)cc1` (single isomer, unassigned) [Example 26, 4-((2-Benzylcyclohexanecarboxamido)methyl)benzoic Acid], in that order: 35 nM, 2920 nM and 116 nM.
For `COc1cccc(CC2CCCCC2C(=O)NCc2ccc(C(=O)O)cc2)c1` (single isomer, unassigned) [Example 28, 4-((2-(3-Methoxybenzyl)cyclohexanecarboxamido)methyl)benzoic Acid], in that order: greater than 10000 nM, 2350 nM and 4 nM.
Taken in the same sequence, the figures for `COc1cccc(CC2CCCCC2C(=O)NCc2ccc(C(=O)O)cc2)c1` (single isomer, unassigned) [Example 29, 4-((2-(3-Methoxybenzyl)cyclohexanecarboxamido)methyl)benzoic Acid] were 4 nM, 2570 nM and 19 nM.
Consider `COc1ccccc1CC1CCCCC1C(=O)NCc1ccc(C(=O)O)cc1` (single isomer, unassigned) [Example 31, 4-((2-(2-Methoxybenzyl)cyclohexanecarboxamido)methyl)benzoic Acid], for which, at EP4 [1], the half-maximal effective concentration (EC50) is greater than 10000 nM. Besides, the values for the Ki at EP2 and on EP4 [2] were 994 nM and 5 nM, respectively.
Taken in the same sequence, the figures for `COc1ccccc1CC1CCCCC1C(=O)NCc1ccc(C(=O)O)cc1` (single isomer, unassigned) [Example 32, 4-((2-(2-Methoxybenzyl)cyclohexanecarboxamido)methyl)benzoic Acid] were greater than 10000 nM, 1320 nM and 7 nM.
For `COc1ccc(CC2CCCCC2C(=O)NCc2ccc(C(=O)O)cc2)cc1` (single isomer, unassigned) [Example 34, 4-((2-(4-Methoxybenzyl)cyclohexanecarboxamido)methyl)benzoic Acid], in that order: greater than 10000 nM, greater than 10000 nM and 44 nM.
At EP4 [2], `CN(Cc1ccc(C(=O)O)cc1)C(=O)C1=C(Cc2cccc(C(F)(F)F)c2)CCC1` [Example 7, 4-((N-Methyl-2-(3-(trifluoromethyl)benzyl)cyclopent-1-enecarboxamido)methyl)benzoic Acid] displayed a Ki of 1570 nM.
In turn, `COc1ccc(CC2=C(C(=O)NCc3ccc(C(=O)O)cc3)CCCC2)cc1OC` [Example 21, 4-((2-(3,4-Dimethoxybenzyl)cyclohex-1-enecarboxamido)methyl)benzoic Acid] registered an EC50 on EP4 [1] greater than 10000 nM. The molecule further gave a Ki on EP4 [2] of 4 nM.
Turning to `COc1cc(CC2=C(C(=O)NCc3ccc(C(=O)O)cc3)C3CCC2C3)cc(OC)c1` (centres unmarked) [Example 36, 4-((3-(3,5-Dimethoxybenzyl)bicyclo[2.2.1]hept-2-ene-2-carboxamido)methyl)benzoic Acid], at EP4 [2], affinity was put at a Ki of 1010 nM.
`COc1cc(CC2C3CCC(C3)C2C(=O)NCc2ccc(C(=O)O)cc2)cc(OC)c1` (centres unmarked) [Example 38, 4-((3-(3,5-Dimethoxybenzyl)bicyclo[2.2.1]heptane-2-carboxamido)methyl)benzoic Acid] returned an EC50 at EP4 [1] greater than 10000 nM. The Ki on EP4 [2] was found to be 402 nM.

Broadly, the EC50 is the concentration at which the effect is half-maximal. A high value points to a need for much substance. In general, Ki refers to the dissociation constant of the complex between target and ligand, obtained from inhibition or displacement.

For the origin of these results see patent publication US10407382B2, “EP4 agonists as therapeutic compounds” (ALLERGAN, INC., priority 2014, dated 2019).
